The nature of series [1]: Cytotoxicity, MTT method, huMDM. It counts as cell-based. Conditions: human, monocyte-derived macrophages (huMDM), read-out: LC50 median lethal concentration huMDM. As for the experimental part: (§1) Cytotoxicity of UBMC-4 was tested in HepG2, CaCo2, and huMDM cell lines according to the effect on cell growth determined by the MTT microenzimatic method, as described by others. Briefly, 2.0 × 10^4 U-937 and huMDM or 2.5 × 10^4 HepG2 and CaCo2 cells were dispensed in 200 µL into each well of a 96-well tissue culture plate containing the corresponding culture medium. Then, 100 µL/well of each compound at a concentration of […] were added and plates were incubated at 37 °C, 5% CO2. After 72 h of incubation, 20 μL of MTT (Sigma-Aldrich, St Louis, MO, USA) were added to each well and plates were incubated for 3 h at 37 °C, 5% CO2. […] The concentration of formazan was determined at 570 nm in a spectrophotometer (Varioskan Flash Multimode Reader, Thermo Scientific, Waltham, MA, USA). […] Cytotoxicity was determined according to the percentages of viability and cell growth inhibition obtained for each compound, bz, doxorubicin, or medium alone. Non-specific absorbance was corrected by subtracting the OD of the blank (culture medium). Percentages of mortality were calculated using equation, as follows: % mortality = 100 − [(O.D. of treated cells)/(O.D. of non-treated cells)] × 100. The half maximal effective concentration (EC50) was calculated by the linear regression model Probit using Graphpad Prism software.
In general terms: Tetrazolium assays rely on reduction of a dye to a coloured formazan, in cell work by metabolically active cells.

The nature of series [2]: Cytotoxicity, MTT method, CaCo2. Format: cell-based. To be noted: human, Caco-2, read-out: LC50 median lethal concentration CaCo2. As for the experimental part:
as §1

Series [3] can be described thus: In vivo pharmacokinetic analysis of UBMC-4 in mice (HPLC plasma, two-compartment model). The arrangement: species or system Balb/c Mus musculus. The method, then:
A total of 30 mice (15 males and 15 females) was randomly selected and divided into two groups: one group received a 200 µL oral single dose of UBMC-4 at a concentration of 60 mM (equivalent to a 200 mg/kg dose), and a control group receiving 200 µL of vehicle (Kolliphor and water without UBMC-4) via oral route. Considering that the average weight of the mice was 25 g, the total amount of UBMC-4 administered was 5 mg. The compound was only administered orally, it was not used intravenously since one of the primary objectives was to evaluate its gastrointestinal absorption. […] In this way, we wanted to find the highest potential plasma concentrations before inducing toxicity. Blood samples were collected in EDTA tubes via intracardiac puncture performed under general anesthesia in both groups at sampling time points as follows: 0 h, 1 h, 2 h, 3 h, 5 h, 6 h, 8 h, and 24 h. Samples were then centrifuged at 1800 rpm at 4 °C for 10 min to collect plasma. For each sampling time point, 100 µL of mouse plasma were collected and 200 µL of acetone were added. This mixture was vortexed for 30 s and centrifuged at 10,000 rpm at 4 °C for 20 min. Supernatants were poured into vials for HPLC analysis following the method described below.
The amount of UBMC-4 in plasma samples was quantified by a HPLC method using a Hitachi Chromaster HPLC System with a Knauer C18 Column as follows: λ: 300 nm; temperature: 40 °C; run time: 13 min at a flow rate of 1.0 mL/min. A gradient of acetonitrile:water:methanol in a 30:40:30 ratio was used as mobile phase from baseline to minute 6, a 20:0:80 ratio from minute 7 to minute 10, and again a 30:40:30 ratio from minute 11. Linearity of the method was calculated for the 0.5 µg/mL to 20 µg/mL concentration range, with a r^2 (correlation coefficient) of 0.969 for the relationship between the area under the curve and UBMC-4 absorption at 300 nm.
The ADAPT 5 software was used to determine the most suitable model for the UBMC-4 plasma concentration profile. The maximum likelihood estimation method was used for modeling. After conducting trials where various models were used, the best one was chosen based on the -Log-Likelihood (-LL) and Akaike information criterion (AIC) values. Consequently, by comparing models, the one producing lower values amongst these two parameters would be the one that best fit the plasma concentration data and the most useful for pharmacokinetic studies. Moreover, based on the R-square value (r^2), we assessed the correlation between the values predicted by the model and those observed in UBMC-4 plasma concentration. The selected model was therefore used to elaborate simulations using different administration regimens and thus predicting what would happen with UBMC-4 concentration levels upon administration of repeated dosage. This simulation was also performed using ADAPT 5 [36, 66, 67]

Where [4] appears, read: two-compartment model, 200 mg/kg oral.

Here are results for one molecule from paper PMC9229894, “In Silico, In Vitro, and Pharmacokinetic Studies of UBMC-4, a Potential Novel Compound for Treating against Trypanosoma cruzi” (Pathogens, 2022).

Structures are written as SMILES. Values joined by “and” are separate entries in the source; they are usually repeats but may differ in a detail not shown here. Equal entries are not always repeated. “Also recorded” adds a separate entry of the source.

In the case of `Oc1ccc(-c2nc(-c3ccc4sc5ccccc5c4c3)c(-c3ccccc3)[nH]2)cc1` [UBMC-4, 4-(4-dibenzo-[b,d]-thien-2-yl-5-phenyl-1H-imidazol-2-yl)phenol], the CC50 at 72 h in series [1] is over 40 µM. In series [2], the CC50 at 72 h was over 40 µM. For the same molecule, the “time of highest plasma concentration” value in series [3] (200 mg/kg oral single dose) turned out to be 3 h. Moreover, the oral absorption result in series [3] (200 mg/kg oral, Kolliphor RH40 formulation, 200 mg/kg) is given as “well absorbed; also recorded: absorbed orally”. This molecule gave a concentration at 0 h in series [3] (both sexes, Balb/c, mouse, plasma, 200 mg/kg oral single dose, 0 h) of 0 ng/mL. Moreover, in series [3] (both sexes, Balb/c, mouse, plasma, 200 mg/kg oral single dose, 1 h), the concentration at 1 h is 2800 ng/mL and 6.69 µM. In series [3] (both sexes, Balb/c, mouse, plasma, 200 mg/kg oral single dose, 2 h), this molecule came in with a concentration at 2 h of 3200 ng/mL. The molecule also displayed a concentration at 3 h in series [3] (both sexes, Balb/c, mouse, plasma, 200 mg/kg oral single dose, 3 h) of 4200 ng/mL. The molecule also gave a concentration at 5 h in series [3] (both sexes, Balb/c, mouse, plasma, 200 mg/kg oral single dose, 5 h) of 3800 ng/mL. This molecule showed a concentration at 6 h in series [3] (both sexes, Balb/c, mouse, plasma, 200 mg/kg oral single dose, 6 h) of 3700 ng/mL. For the same molecule, in series [3] (both sexes, Balb/c, mouse, plasma, 200 mg/kg oral single dose, 8 h), the concentration at 8 h turned out to be 3600 ng/mL. Moreover, the concentration at 24 h in series [3] (both sexes, Balb/c, mouse, plasma, 200 mg/kg oral single dose, 24 h) was 2400 ng/mL and 5.74 µM. The Cmax in series [3] (both sexes, Balb/c, mouse, plasma, po, 200 mg/kg, 200 mg/kg oral single dose, read-out: highest plasma concentration (Cmax)) is 4200 ng/mL and 10 µM. Moreover, the half-life in series [3] (both sexes, Balb/c, mouse, plasma, two-compartment model, 200 mg/kg oral, read-out: estimated half-life (t1/2) (converted)) was 22.4 h. Besides, in series [3] (setting [4]), the CLd/F intercompartmental clearance is reported as 0.2514 L/h, the CLt/F total clearance amounted to 0.0357 L/h, the Ka absorption constant was found to be 0.6213 h⁻¹ and the Vc/F central volume is listed as 0.6930 L. Besides, in series [3] (setting [4]), the Vp/F peripheral volume is 0.4360 L.
